Patent US6974801B2, “Inhibitors and methods of use thereof” (The Trustees of Dartmounth College, priority 2002, dated 2005)
Like-named read-outs stand apart in the source and are kept apart here.

Legend:
[1] = test system: NO production induced by INF-γ in mouse macrophages; conditions: previously reported (Honda et al.); read-out: IC50 (level); cited from earlier work
[2] = test system: human tumor cell lines, mouse 3T3-L1 fibroblasts, mouse macrophages; conditions: cell culture; previously reported (Suh et al., 1999); cited from earlier work
[3] = biological target: T1, peroxisome proliferator-activated receptor γ (PPARγ) (Homo sapiens, UniProt P37231); conditions: Wang et al., 2000; cited from earlier work
T1 sequence (P37231 1-505): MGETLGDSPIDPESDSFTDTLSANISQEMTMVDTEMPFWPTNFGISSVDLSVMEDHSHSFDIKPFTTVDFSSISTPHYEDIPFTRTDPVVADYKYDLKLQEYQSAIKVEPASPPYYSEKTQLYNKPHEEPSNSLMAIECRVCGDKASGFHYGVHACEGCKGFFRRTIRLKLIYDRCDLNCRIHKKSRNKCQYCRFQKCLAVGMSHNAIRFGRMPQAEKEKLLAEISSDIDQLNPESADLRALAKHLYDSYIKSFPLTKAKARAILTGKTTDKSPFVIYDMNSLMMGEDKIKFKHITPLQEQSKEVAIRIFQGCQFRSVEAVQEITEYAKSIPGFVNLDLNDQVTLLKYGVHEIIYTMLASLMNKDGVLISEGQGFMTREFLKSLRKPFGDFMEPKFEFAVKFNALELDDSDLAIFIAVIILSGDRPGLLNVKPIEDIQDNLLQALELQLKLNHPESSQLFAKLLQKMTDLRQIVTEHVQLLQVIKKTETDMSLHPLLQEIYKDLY

[4] = test system: NO production induced by INF-γ in mouse macrophages; test: Inhibition of NO production induced by IFN-γ in mouse macrophages (Griess reaction); assay type: cell-based
Procedure: The procedure for determining IC50 on NO production induced by INF-γ in mouse macrophages is as follows. Macrophages were harvested from female mice injected intraperitoneally four days previously with 4% thioglycollate. These cells were seeded in 96-well tissue culture plates and incubated with 4 ng/mL INF-γ in the presence or absence of inhibitory test compounds. After 48 hours NO production, measured as […] by the Griess reaction, was determined. This method is described fully by Ding et al. (1990) and Bogdan and Ding, (1992).

[5] = Mus musculus, Macrophage, 48 h, Table 1; NO production induced by IFN-γ; tested 0.01 pM-1 μM (10-fold dilutions); average of several separate experiments
[6] = Mus musculus, Macrophage; Table 1; NO production induced by IFN-γ, 48 h; tested 0.01 pM-1 μM (10-fold dilutions); average of several separate experiments
[7] = SAR on substituents at C-17, Tables 1-3
[8] = Mus musculus, Macrophage; Table 2; NO production induced by IFN-γ, 48 h; tested 0.01 pM-1 μM (10-fold dilutions); average of several separate experiments

For `COC(=O)[C@]12CCC(C)(C)C[C@H]1[C@H]1C(=O)C=C3[C@@]4(C)C=C(C#N)C(=O)C(C)(C)[C@@H]4CC[C@@]3(C)[C@]1(C)CC2` [CDDO methyl ester], the IC50 [1] is given as roughly 0.1 nM.

For `CC1(C)CC[C@]2(C(=O)O)CC[C@]3(C)[C@H](C(=O)C=C4[C@@]5(C)C=C(C#N)C(=O)C(C)(C)[C@@H]5CC[C@]43C)[C@@H]2C1` [CDDO, 2-cyano-3,12-dioxooleana-1,9(11)-dien-28-oic acid], the “concentrations at which potencies were found” value [2] is listed as 10^−6 to 10^−9 M, the “ligand for PPARγ” value [3] is listed as “ligand” and the IC50 [4, 5] is listed as 0.44 nM. For the same compound, the IC50 ([4]; Mus musculus, Macrophage, 48 h, Table 3; NO production induced by IFN-γ; tested 0.01 pM-1 μM (10-fold dilutions); average of several separate experiments) was 0.7 nM and the IC50 [1] was roughly 0.1 nM.

For `CC1(C)CC[C@]2(C#N)CC[C@]3(C)[C@H](C(=O)C=C4[C@@]5(C)C=C(C#N)C(=O)C(C)(C)[C@@H]5CC[C@]43C)[C@@H]2C1` [Compound 1, 2-cyano-3,12-dioxooleana-1,9(11)-dien-28-onitrile], the IC50 [4, 6] was 0.0035 nM and the “potency compared with CDDO (SAR statement)” value (“potency compared with CDDO” below) [4, 7] was “much more potent”.

In the case of `CC(=O)OC[C@H]1OC(OC(=O)[C@]23CCC(C)(C)CC2C2C(=O)C=C4[C@@]5(C)C=C(C#N)C(=O)C(C)(C)[C@@H]5CC[C@@]4(C)[C@]2(C)CC3)[C@H](OC(C)=O)C(OC(C)=O)[C@@H]1OC(C)=O` (stereo partly shown) [Compound 2], the IC50 [4, 6] is reported as 0.07 nM.

For `CC1(C)CC[C@]2(C(N)=O)CC[C@]3(C)[C@H](C(=O)C=C4[C@@]5(C)C=C(C#N)C(=O)C(C)(C)[C@@H]5CC[C@]43C)[C@@H]2C1` [Compound 3], the IC50 [4, 6] was 0.098 nM and the “potency compared with CDDO” value [4, 7] was “greater potency than CDDO”.

For `Cc1cn(C(=O)[C@]23CCC(C)(C)CC2C2C(=O)C=C4[C@@]5(C)C=C(C#N)C(=O)C(C)(C)[C@@H]5CC[C@@]4(C)[C@]2(C)CC3)cn1` (stereo partly shown) [Compound 10, 1-(2-cyano-3,12-dioxooleana-1,9(11)-dien-28-oyl)-4-methylimidazole], the “potency compared with CDDO” value [4, 7] was “greatest potency”.

`CCc1nccn1C(=O)[C@]12CCC(C)(C)CC1C1C(=O)C=C3[C@@]4(C)C=C(C#N)C(=O)C(C)(C)[C@@H]4CC[C@@]3(C)[C@]1(C)CC2` (stereo partly shown) [Compound 11] showed an IC50 [4, 8] of 0.1 nM.

Compound `CCCc1nccn1C(=O)[C@]12CCC(C)(C)CC1C1C(=O)C=C3[C@@]4(C)C=C(C#N)C(=O)C(C)(C)[C@@H]4CC[C@@]3(C)[C@]1(C)CC2` (stereo partly shown) [Compound 12] has an IC50 [4, 8] of 0.02 nM.

`Cc1cn(C(=O)[C@]23CCC(C)(C)CC2C2C(=O)C=C4[C@@]5(C)C=C(C#N)C(=O)C(C)(C)[C@@H]5CC[C@@]4(C)[C@]2(C)CC3)c(C)n1` (stereo partly shown) [Compound 13] gave an IC50 [4, 8] of 0.1 nM.

`CC1(C)CC[C@]2(C(=O)n3ccnc3-c3ccccc3)CC[C@]3(C)C(C(=O)C=C4[C@@]5(C)C=C(C#N)C(=O)C(C)(C)[C@@H]5CC[C@]43C)C2C1` (stereo partly shown) [Compound 14] showed an IC50 [4, 8] of 0.05 nM.

Work on `CC1(C)CC[C@]2(C(=O)n3cnc(Br)c3)CC[C@]3(C)C(C(=O)C=C4[C@@]5(C)C=C(C#N)C(=O)C(C)(C)[C@@H]5CC[C@]43C)C2C1` (stereo partly shown) [Compound 15] yielded an IC50 [4, 8] of 0.03 nM.

For `CC(=O)OC[C@H]1O[C@@H](OC(=O)[C@]23CCC(C)(C)C[C@H]2[C@H]2C(=O)C=C4[C@@]5(C)C=C(C#N)C(=O)C(C)(C)[C@@H]5CC[C@@]4(C)[C@]2(C)CC3)[C@H](OC(C)=O)C(OC(C)=O)[C@H]1OC(C)=O` (stereo partly shown) [Compound 18], the IC50 ([4]; Mus musculus, Macrophage; Table 3; NO production induced by IFN-γ, 48 h; tested 0.01 pM-1 μM (10-fold dilutions); average of several separate experiments) was 0.05 nM.

With `C[C@@H]1C[C@H]2[C@@H]3CCC4=CC(=O)C=C[C@]4(C)[C@@]3(F)[C@@H](O)C[C@]2(C)[C@@]1(O)C(=O)CO` [Dexamethasone, reference compound] the IC50 [4, 6] was 0.1 nM.

`CC1(C)CC[C@]2(C(=O)O)CC[C@]3(C)C(=CC[C@@H]4[C@@]5(C)CC[C@H](O)C(C)(C)[C@@H]5CC[C@]43C)[C@@H]2C1` [Oleanolic acid (OA), Oleanolic acid, reference compound] showed an IC50 [4, 5] greater than 40000 nM and an IC50 ([4]; Mus musculus, Macrophage, 48 h, Table 2; NO production induced by IFN-γ; tested 0.01 pM-1 μM (10-fold dilutions); average of several separate experiments) greater than 40000 nM.

For `COC(=O)C12CCC(C)(C)CC1C1C(=O)C=C3C4(C)C=C(C(=O)O)C(=O)C(C)(C)C4CCC3(C)C1(C)CC2` (stereo not shown) [methyl 2-carboxy-3,12-dioxooleana-1,9(11)-dien-28-oate], the IC50 [1] is listed as roughly 0.1 nM.
